Assay [1] addresses Carbonic anhydrase 9 (Homo sapiens, UniProt Q16790). The assay can be described thus: Inhibition of human carbonic anhydrase 9 incubated for 15 mins prior to testing by stopped flow CO2 hydration assay.
Assay [2] deals with Carbonic anhydrase 12 (Homo sapiens, UniProt O43570). The assay can be described thus: Inhibition of human carbonic anhydrase 12 incubated for 15 mins prior to testing by stopped flow CO2 hydration assay.
Sequence of Carbonic anhydrase 12 (O43570 whole entry): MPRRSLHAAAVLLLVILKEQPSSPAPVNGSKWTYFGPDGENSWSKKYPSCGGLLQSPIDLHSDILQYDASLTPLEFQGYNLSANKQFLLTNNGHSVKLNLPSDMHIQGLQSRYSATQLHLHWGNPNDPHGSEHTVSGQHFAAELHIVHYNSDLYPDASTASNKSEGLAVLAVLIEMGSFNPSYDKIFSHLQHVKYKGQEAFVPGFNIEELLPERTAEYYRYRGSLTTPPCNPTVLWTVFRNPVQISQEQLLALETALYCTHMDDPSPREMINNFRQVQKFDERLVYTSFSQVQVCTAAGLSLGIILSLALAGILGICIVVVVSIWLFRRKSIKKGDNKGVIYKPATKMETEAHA

Consider `NS(=O)(=O)c1ccc(O)cc1`, for which the Ki in assay [1] was 0.235 µM; in assay [2] it was 0.176 µM.

As to `O=S(=O)(N[C@H]1C=C[C@@H](O)[C@@H](CO)O1)c1ccc(O)cc1`, the Ki in assay [1] and in assay [2] was greater than 50 µM in each case.

Turning to `O=S(=O)(N[C@@H]1C=C[C@@H](O)[C@@H](CO)O1)c1ccc(O)cc1`, the Ki in assay [1] and in assay [2] was greater than 50 µM each time.

Regarding `CC(=O)OC[C@H]1O[C@@H](NS(=O)(=O)c2ccc(O)cc2)C=C[C@H]1OC(C)=O`, the Ki in assay [1] and in assay [2] was greater than 50 µM throughout.

`CC(=O)OC[C@H]1O[C@H](NS(=O)(=O)c2ccc(O)cc2)C=C[C@H]1OC(C)=O`: the Ki in assay [1] and in assay [2] was greater than 50 µM in each case.

Consider `O=S(=O)(NC1C=C[C@H](O)[C@@H](CO)O1)c1ccc(O)cc1` (stereo partly drawn), for which the Ki in assay [1] and in assay [2] was greater than 50 µM each time.

For the molecule `CC(=O)OC[C@H]1OC(NS(=O)(=O)c2ccc(O)cc2)C(OC(C)=O)=C[C@@H]1OC(C)=O` (stereo partly drawn), the Ki in assay [1] and in assay [2] was greater than 50 µM each time.

As to `O=C1C[C@H](O)[C@@H](CO)OC1NS(=O)(=O)c1ccc(O)cc1` (stereo partly drawn), the Ki in assay [1] and in assay [2] was greater than 50 µM each time.

For `CC(=O)OC[C@H]1OC(NS(=O)(=O)c2ccc(O)cc2)C=C[C@@H]1OC(C)=O` (relative stereo), the Ki in assay [1] and in assay [2] was greater than 50 µM in each case.

The values above are taken from ChEMBL document CHEMBL4431323, “Synthesis and carbonic anhydrase inhibitory effects of new N-glycosylsulfonamides incorporating the phenol moiety” (Bioorg Med Chem Lett, 2016).
